# In article PMC11440035, “Interaction of myricetin, ampelopsin (dihydromyricetin), and their sulfate metabolites with serum albumin, cytochrome P450 (CYP2C9, 2C19, and 3A4) enzymes, and organic anion‐transporting polypeptides (OATP1B1 and OATP2B1)” (Pharmacology Research & Perspectives, 2024):
# How the values were obtained:
# CYP2C9 = conditions: 20 μM test substance, 5 μM substrate
# [1] = tested on: T1, human serum albumin (HSA); parameters: method as in PMID 30562928, PMID 28135601; conditions: same experimental conditions; cited from earlier work
# T1 construct: purchased Merck (Darmstadt, Germany) A1653
# OATP1B1 [2] = target: T2, OATP1B1 (Homo sapiens, UniProt Q9Y6L6); parameters: method as in PMID 32661014; conditions: positive control, same experimental model; cited from earlier work
# T2 construct: expressed in transfected cells; host or cells: A431
# T2 sequence (Q9Y6L6 1-691): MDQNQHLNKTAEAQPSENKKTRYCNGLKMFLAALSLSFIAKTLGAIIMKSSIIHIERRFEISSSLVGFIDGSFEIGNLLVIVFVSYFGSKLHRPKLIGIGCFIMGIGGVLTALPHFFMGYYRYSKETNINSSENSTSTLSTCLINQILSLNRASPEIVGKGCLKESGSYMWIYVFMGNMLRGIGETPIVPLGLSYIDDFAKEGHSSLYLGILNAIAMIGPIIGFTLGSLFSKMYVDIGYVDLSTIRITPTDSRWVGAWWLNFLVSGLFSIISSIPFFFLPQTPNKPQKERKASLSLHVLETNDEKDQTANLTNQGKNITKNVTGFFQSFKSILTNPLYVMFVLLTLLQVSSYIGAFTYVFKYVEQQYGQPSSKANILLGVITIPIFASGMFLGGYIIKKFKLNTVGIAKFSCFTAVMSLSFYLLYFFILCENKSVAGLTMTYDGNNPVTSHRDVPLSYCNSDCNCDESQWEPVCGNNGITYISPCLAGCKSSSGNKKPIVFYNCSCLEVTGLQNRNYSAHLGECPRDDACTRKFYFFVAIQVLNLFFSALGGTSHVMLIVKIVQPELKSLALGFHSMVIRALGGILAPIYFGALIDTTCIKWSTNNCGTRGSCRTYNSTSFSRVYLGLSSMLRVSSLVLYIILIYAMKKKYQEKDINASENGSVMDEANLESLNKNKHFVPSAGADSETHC
# OATP2B1 [3] = target: T3, OATP2B1 (Homo sapiens, UniProt O94956); parameters: method as in PMID 32661014; conditions: positive control, same experimental model; cited from earlier work
# T3 construct: expressed in transfected cells; host or cells: A431
# T3 sequence (O94956 1-709): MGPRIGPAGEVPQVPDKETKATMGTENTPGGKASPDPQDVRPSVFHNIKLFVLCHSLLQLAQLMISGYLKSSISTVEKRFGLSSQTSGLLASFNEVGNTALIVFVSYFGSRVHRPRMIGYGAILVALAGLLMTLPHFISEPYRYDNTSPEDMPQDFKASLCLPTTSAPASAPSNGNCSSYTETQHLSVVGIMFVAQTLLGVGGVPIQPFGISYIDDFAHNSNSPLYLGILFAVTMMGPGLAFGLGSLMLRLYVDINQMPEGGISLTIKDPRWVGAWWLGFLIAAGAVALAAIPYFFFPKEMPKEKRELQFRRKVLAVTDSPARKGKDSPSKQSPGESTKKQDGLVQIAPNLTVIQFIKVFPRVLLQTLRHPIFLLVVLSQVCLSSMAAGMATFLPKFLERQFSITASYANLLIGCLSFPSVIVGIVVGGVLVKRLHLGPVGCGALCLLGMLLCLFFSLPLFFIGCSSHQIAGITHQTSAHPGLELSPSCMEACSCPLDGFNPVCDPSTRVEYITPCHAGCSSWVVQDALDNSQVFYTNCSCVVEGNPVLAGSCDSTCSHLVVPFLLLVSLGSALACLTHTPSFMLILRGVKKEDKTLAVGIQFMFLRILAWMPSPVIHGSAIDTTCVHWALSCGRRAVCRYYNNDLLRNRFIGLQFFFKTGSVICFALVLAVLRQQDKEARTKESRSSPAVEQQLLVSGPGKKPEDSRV
# OATP1B1 [4] = target: T2, OATP1B1; assay: Uptake of flavonoids by A431-OATP1B1 versus mock cells (APB fluorescence); format: cell-based; conditions: BSP 20 μM, M3′S 2 μM, 2 min
# Experimental: (§1) Direct uptake of AMP, MYR, and their sulfate metabolites were examined in A431 cells overexpressing OATP1B1 or OATP2B1, and in their mock‐transfected controls using APB as a fluorescence enhancer. One day before the uptake measurements, the cells were seeded onto 96‐well plates at a density of 80 000 cells/well in DMEM (200 μL). The following day, the cell culture medium was removed, and the cells were rinsed thrice with PBS (200 μL). Thereafter, the cells were preincubated with HBSS (50 μL) for 5 min at 37°C. The uptake reaction was initiated by the addition of a further 50 μL of HBSS containing AMP, MYR, or their sulfate conjugates (10 μM). After incubating for 15 min at 37°C, the reaction was stopped by removing the supernatant and rinsing the cells three times with ice‐cold PBS. Then PBS buffer (200 μL) containing APB (250 μg/mL) and BSA (1 mg/mL) was added to each well.[35] The fluorescence was read using an Enspire plate reader using the wavelengths listed in Section 2.7.
# (§2) The concentration‐dependent uptake of M3′S was also tested under the same conditions, except the cells were incubated with 0–10 μM M3′S for 2 min (OATP1B1) or 5 min (OATP2B1).
# (§3) To test the effect of BSP (a known inhibitor of OATPs[44]) on the cellular uptake of M3′S, cells were preincubated with HBSS buffer (50 μL) with or without BSP (20 μM) for 5 min at 37°C. Thereafter, we added 50 μL of HBSS containing M3′S (final concentration: 2 μM), and cells were further incubated at 37°C for 2 min (OATP1B1) or 5 min (OATP2B1). The reaction was stopped by removing the supernatant. After washing the cells with ice‐cold PBS, a PBS buffer with APB/BSA was added. Fluorescence was determined by applying an Enspire plate reader at excitation/emission wavelengths of 480/540 nm.
# OATP2B1 [5] = target: T3, OATP2B1; assay: Uptake of flavonoids by A431-OATP2B1 versus mock cells (APB fluorescence); format: cell-based; conditions: BSP 20 μM, M3′S 2 μM, 5 min
# Experimental: as §1, §2, §3
# CYP3A4 = tested on: T4, CYP3A4; assay: CYP3A4 assay (testosterone hydroxylation), CypExpress human kit; format: biochemical; conditions: 20 μM, 5 μM substrate
# T4 construct: purchased Merck (Darmstadt, Germany)
structure (smiles),measurement,setting,value
Nc1ccc(S(=O)(=O)Nc2ccnn2-c2ccccc2)cc1 [sulfaphenazole],effect on CYP2C9‐catalyzed diclofenac hydroxylation (metabolite formation),CYP2C9,marked decreases in metabolite formation
O=c1c(O)c(-c2ccc(O)c(OS(=O)(=O)O)c2)oc2cc(O)cc(O)c12 [quercetin‐3′‐sulfate],displacement of the site marker warfarin from HSA,[1],almost completely displaced the site marker
O=c1cc(-c2ccccc2)oc2cc(OS(=O)(=O)O)cc(O)c12 [chrysin‐7‐sulfate],displacement of the site marker warfarin from HSA,[1],almost completely displaced the site marker
"O=C1OC(c2ccc(O)c(S(=O)(=O)O)c2)(c2ccc(O)c(S(=O)(=O)O)c2)c2c(Br)c(Br)c(Br)c(Br)c21 [BSP, bromosulfophthalein, reference compound]",IC50,OATP1B1 [2],60 nM
same,IC50,OATP2B1 [3],1300 nM
same,effect on uptake of M3′S into OATP1B1‐overexpressing cells,OATP1B1 [4],considerably decreased the uptake of M3′S
same,effect on uptake of M3′S into OATP2B1‐overexpressing cells,OATP2B1 [5],considerably decreased the uptake of M3′S
CC(=O)N1CCN(c2ccc(OCC3COC(Cn4ccnc4)(c4ccc(Cl)cc4Cl)O3)cc2)CC1 (centres unmarked) [ketoconazole],effect on CYP3A4 metabolite formation,CYP3A4,marked decreases in metabolite formation
